Structures are written as SMILES. pIC50: −log10 of the molar value. Like-named read-outs stand apart in the source and are kept apart here.

Consider three compounds from patent publication US20070021391A1, “Preventive/remedy for urinary disturbance” (priority 2003, published 2007).

Test [1] deals with butyrylcholine esterase/acetylcholine esterase. Conditions: Literature 7; species not given; cited from earlier work.
Test [2] has as its target Acetylcholine esterase (Electrophorus electricus, UniProt O42275). The conditions noted are these: Electric eel; Literature 5 (tacrine line prints 6); read-out: Acetylcholine esterase inhibitory activity (IC50); cited from earlier work.
The target of test [3] is Butyrylcholine esterase (Equus caballus, UniProt P81908). Conditions: read-out: Butyrylcholine esterase inhibitory activity (IC50); cited from earlier work.
In test [4] the target is T1, acetylcholine esterase of human erythrocyte origin (Homo sapiens, UniProt P22303).
T1 construct: acetylcholine esterase of human erythrocyte origin; purchased Sigma, St. Louis, Mo., USA; host or cells: human erythrocytes
In words: biochemical. Type of test: biochemical.

The subject of another test is bladder muscle. Set-up: species or system guinea pig. The conditions noted are these: for Tension (%): 30 minutes, change of basic tension, 100 mM KCl contraction = 100%.
In test [5] the target is T2, butyrylcholine esterase of human serum origin (Homo sapiens, UniProt P06276).
T2 construct: butyrylcholine esterase of human serum origin; purchased Biogenesis, Poole, UK; host or cells: human serum
The experiment in a line: biochemical. Type of test: biochemical.
Procedure: The AChE inhibitory activity and the BuChE inhibitory activity were determined by a thiocholine method (Ellman method) using acetylcholine esterase of human erythrocyte origin (Sigma, St. Louis, Mo., USA) and butyrylcholine esterase of human serum origin (Biogenesis, Poole, UK). Acetylcholine esterase or butyrylcholine esterase was diluted to a concentration of 0.2 IU/mL with 80 mM tris-HCL buffers (pH=7.4) containing 0.3% bovine serum albumin (BSA) to prepare an enzyme preparation. […] The stock solution was diluted at 3-fold common ratio with 10% DMSO and 80 mM tris-HCl buffers containing 0.3% BSA. On a 96 wells microplate, 20 μL of the drug solution with a given concentration, 30 μL of 80 mM tris-HCl buffers containing 0.3% BSA and 50 μL of the enzyme preparation were distributed, and incubated at room temperature for 1 hour after shaking for 10 seconds. […] For the respective drugs, the test was repeated twice. The % of control of the increase in light absorption was calculated at each concentration with respect to the respective drugs. % of control=increase in light absorption of drug/increase in light absorption of control×100

For test [6], the system named is Hartley male guinea pig, urethane anesthesia. In words: Pressure/flow study using guinea pig (Example 3). The conditions noted are these: for Amount of urination, proportion for value before administration (%) / At maximum urine flow rate Inner pressure of bladder, proportion for value before administration (%) / Maximum urine flow rate, proportion for value before administration (%): i.v.; for Bladder compliance, proportion for value before administration (%) / Bladder volume, proportion for value before administration (%): iv; for change of the parameters at urination and at collection of urine (text): intravenous administration. Type of test: in vivo. How it is done: A Hartley male guinea pig of 5 weeks old (Japan SLC) was used. After urethane anesthesia, the medial incision of the lower abdomen was carried out, and the bladder was exposed. Two injection needles (20G) with which a polyethylene tube (PE-100) was linked were inserted in the bladder, and one needle was used for injection of saline and another needle was used for measurement of the inner pressure of the bladder. The injection of saline was continuously carried out at a rate of 18 mL/h using a syringe pump (SP-100S, JMS, and Hiroshima), the injection was stopped after intermittent urination was confirmed 3 times at minimum, and the saline in the bladder was removed by suction. Injection was started again, and the injection was stopped when the raise of the inner pressure of the bladder just before urination was confirmed. The amount of urine excreted was measured by an electronic weighing machine (HX-400, A&D, and Tokyo) and the inner pressure of the bladder was measured using a pressure transducer (AP641G, NIPPON KODEN Corporation). The analogue data of the weight of urine and the inner pressure of the bladder were inputted in a multi-channel data analyzer (MP-100A-CE, Biopac systems), and analyzed by a proprietary software (Acqknowledge, Biopac systems). The sampling interval of data was 0.1 second and a low pass filter was applied to the data of discharge amount and urine flow rate at 0.5 Hz in order to remove noise. A delay time of 0.1 second in weighing the urine was rectified, and the urine flow rate was determined by differentiating the value of discharge amount. After a value before twice administration of the drug was measured, the drugs (the compound A, distigmine, neostigigmine and bethanechol) were intravenously administrated. Saline in the bladder was extracted after 10 minutes of administration of the compound A, bethanechol and neostigigmine and after 30 minutes of administration of distigmine, and injection was started again to measure data. The drugs were dissolved with distilled water so that administration volume was 0.5 mL/kg. Parameters (bladder volume, the amount of urination, the maximum urine flow rate, the inner pressure of the bladder at the maximum urine flow, bladder compliance) below were measured. The bladder compliance was calculated from intersection point (the threshold of bladder volume, threshold pressure) which was obtained by determining regression line in the respective curves of the inner pressure of the bladder at collection of urine and urinary reflex. The change rate before and after administration of the drug was calculated for the respective parameters and the calibration of significant difference was carried out by a solvent administration group and Dunnett calibration (Table 6 and Table 7).

Test [7] addresses T3, Acetylcholine esterase (Rattus norvegicus, UniProt P37136).
T3 sequence (P37136 32-614): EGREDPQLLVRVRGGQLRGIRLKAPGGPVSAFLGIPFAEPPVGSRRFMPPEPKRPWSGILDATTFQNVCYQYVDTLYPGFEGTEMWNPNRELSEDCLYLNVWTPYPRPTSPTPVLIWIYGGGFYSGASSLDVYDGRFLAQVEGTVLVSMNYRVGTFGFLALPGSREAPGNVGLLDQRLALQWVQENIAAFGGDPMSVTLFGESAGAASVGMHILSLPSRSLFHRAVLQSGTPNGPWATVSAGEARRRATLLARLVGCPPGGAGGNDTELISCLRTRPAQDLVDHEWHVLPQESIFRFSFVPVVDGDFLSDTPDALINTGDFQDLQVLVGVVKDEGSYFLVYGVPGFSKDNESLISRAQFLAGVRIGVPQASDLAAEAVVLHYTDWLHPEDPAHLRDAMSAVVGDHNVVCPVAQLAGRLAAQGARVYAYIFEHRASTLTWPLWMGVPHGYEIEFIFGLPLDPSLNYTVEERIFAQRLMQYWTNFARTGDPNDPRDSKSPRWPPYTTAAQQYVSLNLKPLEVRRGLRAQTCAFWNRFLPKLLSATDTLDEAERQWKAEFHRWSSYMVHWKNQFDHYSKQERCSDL
The conditions noted are these: Literature 6, read-out: Acetylcholine esterase inhibitory activity (IC50); cited from earlier work.

Test [8] has as its target Butyrylcholine esterase (Rattus norvegicus, UniProt Q9JKC1). The conditions noted are these: Literature 6, read-out: Butyrylcholine esterase inhibitory activity (IC50); cited from earlier work.

T2 sequence (P06276 29-602): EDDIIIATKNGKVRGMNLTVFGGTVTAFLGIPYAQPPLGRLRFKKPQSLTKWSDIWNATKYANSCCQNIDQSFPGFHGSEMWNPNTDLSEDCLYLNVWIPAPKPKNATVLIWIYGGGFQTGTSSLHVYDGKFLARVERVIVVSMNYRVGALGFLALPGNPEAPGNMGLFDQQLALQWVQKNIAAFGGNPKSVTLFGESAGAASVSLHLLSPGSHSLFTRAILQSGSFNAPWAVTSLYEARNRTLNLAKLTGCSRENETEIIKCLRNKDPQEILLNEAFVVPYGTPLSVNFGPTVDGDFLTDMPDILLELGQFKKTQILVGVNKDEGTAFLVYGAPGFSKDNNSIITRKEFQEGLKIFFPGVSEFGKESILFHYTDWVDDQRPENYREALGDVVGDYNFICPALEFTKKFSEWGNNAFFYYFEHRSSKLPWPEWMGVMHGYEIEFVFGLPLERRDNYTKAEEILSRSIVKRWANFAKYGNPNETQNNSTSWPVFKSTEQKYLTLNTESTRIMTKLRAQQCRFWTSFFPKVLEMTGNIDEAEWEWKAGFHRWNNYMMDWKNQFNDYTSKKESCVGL
Butyrylcholine esterase (Equus caballus, UniProt P81908), sequence (P81908 whole entry): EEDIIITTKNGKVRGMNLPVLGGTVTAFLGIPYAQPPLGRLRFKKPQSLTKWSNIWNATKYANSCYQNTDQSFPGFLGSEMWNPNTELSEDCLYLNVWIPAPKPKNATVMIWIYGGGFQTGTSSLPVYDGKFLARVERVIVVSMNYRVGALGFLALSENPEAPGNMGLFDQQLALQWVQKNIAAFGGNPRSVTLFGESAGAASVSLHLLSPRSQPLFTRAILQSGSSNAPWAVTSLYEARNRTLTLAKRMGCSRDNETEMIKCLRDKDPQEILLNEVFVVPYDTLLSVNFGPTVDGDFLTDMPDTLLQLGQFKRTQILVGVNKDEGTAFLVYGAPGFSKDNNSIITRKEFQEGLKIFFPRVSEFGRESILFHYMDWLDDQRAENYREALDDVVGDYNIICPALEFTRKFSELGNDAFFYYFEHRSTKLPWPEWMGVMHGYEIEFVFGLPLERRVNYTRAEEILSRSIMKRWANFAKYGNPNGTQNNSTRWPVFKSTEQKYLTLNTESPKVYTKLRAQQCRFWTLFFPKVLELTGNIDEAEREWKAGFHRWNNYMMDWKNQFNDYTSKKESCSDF
Acetylcholine esterase (Electrophorus electricus, UniProt O42275), sequence (O42275 24-633): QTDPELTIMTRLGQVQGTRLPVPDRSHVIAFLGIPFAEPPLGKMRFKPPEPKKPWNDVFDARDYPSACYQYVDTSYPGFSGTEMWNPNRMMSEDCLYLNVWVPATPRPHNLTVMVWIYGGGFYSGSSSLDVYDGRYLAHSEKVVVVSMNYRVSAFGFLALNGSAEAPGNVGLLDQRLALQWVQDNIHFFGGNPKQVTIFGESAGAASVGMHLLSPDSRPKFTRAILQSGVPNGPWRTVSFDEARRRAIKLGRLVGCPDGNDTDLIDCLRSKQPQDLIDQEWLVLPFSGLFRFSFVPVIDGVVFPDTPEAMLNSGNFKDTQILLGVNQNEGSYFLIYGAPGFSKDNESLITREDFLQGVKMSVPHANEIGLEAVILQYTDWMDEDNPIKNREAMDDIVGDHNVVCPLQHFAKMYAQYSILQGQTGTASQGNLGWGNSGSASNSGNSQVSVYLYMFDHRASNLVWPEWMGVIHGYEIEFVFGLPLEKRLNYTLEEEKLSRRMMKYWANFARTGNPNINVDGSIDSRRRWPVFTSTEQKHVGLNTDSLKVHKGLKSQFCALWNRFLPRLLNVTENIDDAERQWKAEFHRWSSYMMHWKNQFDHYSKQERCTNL
Butyrylcholine esterase (Rattus norvegicus, UniProt Q9JKC1), sequence (Q9JKC1 24-597): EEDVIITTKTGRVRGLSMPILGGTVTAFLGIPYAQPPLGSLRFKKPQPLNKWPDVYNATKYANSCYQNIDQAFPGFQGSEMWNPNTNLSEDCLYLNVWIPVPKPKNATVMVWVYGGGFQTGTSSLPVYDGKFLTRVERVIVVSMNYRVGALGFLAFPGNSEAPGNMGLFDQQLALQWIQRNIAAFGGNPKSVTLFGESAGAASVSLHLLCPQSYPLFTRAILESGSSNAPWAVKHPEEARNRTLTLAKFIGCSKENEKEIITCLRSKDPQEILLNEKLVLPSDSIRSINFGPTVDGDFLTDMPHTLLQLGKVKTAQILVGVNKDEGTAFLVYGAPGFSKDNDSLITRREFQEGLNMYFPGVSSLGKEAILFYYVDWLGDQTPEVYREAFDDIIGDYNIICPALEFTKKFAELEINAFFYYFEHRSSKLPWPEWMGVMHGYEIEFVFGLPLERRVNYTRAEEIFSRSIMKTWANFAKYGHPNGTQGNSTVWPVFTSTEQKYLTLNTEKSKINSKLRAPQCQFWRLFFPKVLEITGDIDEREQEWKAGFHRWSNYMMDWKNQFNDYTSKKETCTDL
T1 sequence (P22303 32-617 isoform P22303-2 limits assumed): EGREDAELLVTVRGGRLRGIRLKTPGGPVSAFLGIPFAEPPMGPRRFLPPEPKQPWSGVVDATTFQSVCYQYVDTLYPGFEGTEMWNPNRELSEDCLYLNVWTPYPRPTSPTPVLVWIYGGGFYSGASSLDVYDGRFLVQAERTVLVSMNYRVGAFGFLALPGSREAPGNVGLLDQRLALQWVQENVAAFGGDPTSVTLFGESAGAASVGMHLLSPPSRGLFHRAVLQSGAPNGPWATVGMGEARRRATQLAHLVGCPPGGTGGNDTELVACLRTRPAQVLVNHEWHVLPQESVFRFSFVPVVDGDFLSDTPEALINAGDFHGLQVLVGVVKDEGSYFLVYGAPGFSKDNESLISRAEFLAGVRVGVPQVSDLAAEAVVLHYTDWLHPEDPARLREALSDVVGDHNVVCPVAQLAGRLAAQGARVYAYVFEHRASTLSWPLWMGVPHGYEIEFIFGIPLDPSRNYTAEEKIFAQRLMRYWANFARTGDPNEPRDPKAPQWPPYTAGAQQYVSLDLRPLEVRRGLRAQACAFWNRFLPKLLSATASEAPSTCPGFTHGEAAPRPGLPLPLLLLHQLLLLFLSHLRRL

On to `CCc1ccccc1NC(=O)Oc1ccc2c(c1)[C@]1(C)CCN(C)O[C@@H]1N2C` [Ganstigmine], for which the “Selectivity (butyrylcholine esterase/acetylcholine esterase)” value in test [1] is 115.
By pIC50 is commonly meant −log10 of the IC50, conventionally taken in molar units. Consider `CN(C)C(=O)Oc1cccc([N+](C)(C)C)c1` [Neostigigmine], for which the pIC50 on Acetylcholine esterase [2] is 5.30; on Butyrylcholine esterase [3], 7.00; in test [5], 6.22. The “inhibition of the activity of human acetylcholine esterase” value in test [4] is listed as “inhibited the activity of human acetylcholine esterase”. For the same compound, the “Tension (%)” value in the test on bladder muscle (0.01 μM) is given as −0.95 ± 0.37%; in the test with bladder muscle (0.03 μM) it was −0.31 ± 0.25%; with bladder muscle (0.1 μM), 1.52 ± 0.37 %; with bladder muscle (0.3 μM), 6.87 ± 1.25 %; in the test on bladder muscle (1 μM) it was 17.78 ± 2.25 %. In addition, the “effect on basic tension” value with bladder muscle (drug alone) was “increased basic tension significantly and concentration-dependently”. In addition, in [5], the “inhibitory activity for human butyrylcholine esterase” value is recorded as “inhibitory activity was confirmed”. Also, the figures for the “Amount of urination, proportion for value before administration (%)” value in test [6] (0.01 mg/kg), in test [6] (0.03 mg/kg) and in test [6] (0.1 mg/kg) were 107.7 ± 17.2%, 91.6 ± 14.9% and 58.3 ± 16.4%, respectively. Further, the results for the “At maximum urine flow rate Inner pressure of bladder, proportion for value before administration (%)” value in test [6] (0.01 mg/kg), in test [6] (0.03 mg/kg) and in [6] (0.1 mg/kg) were 112.3 ± 4.2%, 128.5 ± 10.9 % and 130.9 ± 8.7 %, respectively. Further, the “Maximum urine flow rate, proportion for value before administration (%)” value in [6] (0.01 mg/kg) is 79.4 ± 11.5%; in test [6] (0.03 mg/kg), 67.2 ± 9.9%; in test [6] (0.1 mg/kg), 54.0 ± 13.8%. The “Bladder compliance, proportion for value before administration (%)” value in test [6] (0.01 mg/kg) is 61.5 ± 8.6%; in test [6] (0.03 mg/kg), 59.4 ± 9.1 %; in test [6] (0.1 mg/kg), 31.7 ± 7.1 %. The “Bladder volume, proportion for value before administration (%)” value in test [6] (0.01 mg/kg) turned out to be 81.1 ± 8.9%; in [6] (0.03 mg/kg), 86.4 ± 7.5%; in [6] (0.1 mg/kg), 66.5 ± 14.7%. Further, the “change of the parameters at urination and at collection of urine (text)” value is “lowered the bladder compliance significantly” in test [6]; “did not show clear action for the amount of urination and the maximum urine flow rate and increased urination pressure significantly” in [6] (listed as neostigigmine).
For `O=C(CCC1CCN(Cc2ccccc2)CC1)c1ccc2c(c1)NCCCC2` [TAK-147], the values for the pIC50 on Acetylcholine esterase [7] and on Butyrylcholine esterase [8] were 7.29 and 4.62, respectively.
